These results are taken from ChEMBL document CHEMBL5038643, “Phytochemical Investigation of the Roots of Ipomoea asarifolia and Antiproliferative Activity of the Isolated Compounds against Multiple Myeloma Cells” (J Nat Prod, 2022).

The source made the active and inactive calls. The rule behind the calls is not given here.

Data set [1] concerns MM1.S. Nature of the data set: Antiproliferative activity against dexamethasone-sensitive human MM.1S cells assessed as reduction in cell viability measured after 72 hrs by XTT assay. It is filed as functional, cell-based.
For data set [2], the system named is B-cell. Nature of the data set: Cytotoxicity against human B lymphocyte assessed as reduction in cell viability at 50 uM measured after 72 hrs by XTT assay. The format is toxicity, cell-based.
Data set [3] has as its system MM1.S. Nature of the data set: Antiproliferative activity against dexamethasone-sensitive human MM.1S cells assessed as reduction in cell viability at 10 uM measured after 72 hrs by XTT assay. It is filed as functional, cell-based.
Data set [4] is described as follows: Antiproliferative activity against dexamethasone-resistant human MM.1R cells assessed as reduction in cell viability measured after 72 hrs by XTT assay. It is filed as functional, cell-based.
Data set [5] deals with MM.1R. Nature of the data set: Antiproliferative activity against dexamethasone-resistant human MM.1R cells assessed as reduction in cell viability at 10 uM measured after 72 hrs by XTT assay. The format is functional, cell-based.
The test system of data set [6] is RPMI-8226. Put plainly: Antiproliferative activity against human RPMI 8226 cells assessed as reduction in cell viability measured after 72 hrs by XTT assay. It is filed as functional, cell-based. The note with it: RPMI-8226, 72 h.
The test system of data set [7] is RPMI-8226. Nature of the data set: Antiproliferative activity against human RPMI 8226 cells assessed as reduction in cell viability at 10 uM measured after 72 hrs by XTT assay. It is filed as functional, cell-based.

As to `CCCCCCCCCCCCCCCCCCOC(=O)/C=C/c1ccc(O)c(O)c1`, the IC50 is greater than 10 µM in data set [1], greater than 10 µM in data set [4] and 9.4 µM in data set [6]. In addition, the Activity entry in data set [2] was “Non-Toxic”. The result in data set [3] and in data set [5] was inactive.

For the molecule `CCCCCCCCCCCCCCCCOC(=O)/C=C/c1ccc(O)c(O)c1`, the IC50 is greater than 10 µM in data set [1], greater than 10 µM in data set [4] and 3 µM in data set [6]. For the same molecule, in data set [2], the Activity result is listed as “Non-Toxic”. Moreover, the outcome in data set [3] and in data set [5] was inactive.

In the case of `CCCCCCCCCCCC(=O)O[C@H]1[C@H](O[C@@H]2[C@H]3OC(=O)CCCCCCCCC[C@H](CCCCC)O[C@@H]4O[C@H](C)[C@H](O)[C@H](O)[C@H]4O[C@H](O[C@H]2C)[C@@H]3O)O[C@@H](C)[C@H](O[C@@H]2O[C@@H](C)[C@H](OC(=O)CCCCCCC)[C@@H](O)[C@H]2O)[C@H]1O[C@@H]1O[C@@H](C)[C@H](O)[C@@H](O)[C@H]1O`, the outcome in data set [3], in data set [7] and in data set [5] was inactive. Besides, the concentration for half-maximal inhibition (IC50) in data set [6] was greater than 10 µM.

Turning to `C[C@H](CO)CC(=O)C[C@@H](C)CCC(=O)c1ccoc1`, the outcome in data set [3] and in data set [5] was inactive. In addition, the IC50 in data set [6] is greater than 10 µM.

Turning to `CCCCCCCCCCCCCCCCCCCCOC(=O)/C=C/c1ccc(O)cc1`, the outcome in data set [3] and in data set [5] was inactive.

With `CCCCCCCCCCCCCCCCCCOC(=O)/C=C/c1ccc(O)cc1`, the outcome in data set [3] and in data set [5] was inactive.

As to `CCCCCCCCCCCCCCCCOC(=O)/C=C/c1ccc(O)cc1`, the outcome in data set [3] and in data set [5] was inactive.

For `CC(C)C[C@H](NC(=O)[C@H](Cc1ccccc1)NC(=O)c1cnccn1)B(O)O` [BORTEZOMIB], the IC50 in data set [1] was 0.0026 µM; in data set [4] it was 0.0048 µM; in data set [6] it was 0.0045 µM. Further, the result in data set [3] and in data set [5] was inactive.

`CCCCCCCCCCCC(=O)O[C@H]1[C@H](O[C@@H]2[C@H]3OC(=O)CCCCCCCCC[C@H](CCCCC)O[C@@H]4O[C@H](C)[C@H](O)[C@H](O)[C@H]4O[C@H](O[C@H]2C)[C@@H]3O)O[C@@H](C)[C@H](O[C@@H]2O[C@@H](C)[C@H](OC(=O)[C@@H](C)CC)[C@@H](O)[C@H]2O)[C@H]1O[C@@H]1O[C@@H](C)[C@H](O)[C@@H](O)[C@H]1O` [PESCAPREIN III]: the outcome in data set [3] and in data set [5] was inactive. Moreover, the IC50 in data set [6] was greater than 10 µM.

On to `CCCCCCCCCCCC(=O)O[C@H]1[C@H](O[C@@H]2[C@H]3OC(=O)CCCCCCCCC[C@H](CCCCC)O[C@@H]4O[C@H](C)[C@H](O)[C@H](O)[C@H]4O[C@H](O[C@H]2C)[C@@H]3O)O[C@@H](C)[C@H](O[C@@H]2O[C@@H](C)[C@H](OC(=O)CCCCC)[C@@H](O)[C@H]2O)[C@H]1O[C@@H]1O[C@@H](C)[C@H](O)[C@@H](O)[C@H]1O` [PESCAPREIN IV], for which the IC50 was greater than 10 µM in data set [1], greater than 10 µM in data set [4] and 10.8 µM in data set [6]. Moreover, the outcome in data set [3] and in data set [5] was inactive.

With `CCCCCCCCCC(=O)O[C@H]1[C@H](O[C@@H]2[C@H]3OC(=O)CCCCCCCCC[C@H](CCCCC)O[C@@H]4O[C@H](C)[C@H](O)[C@H](O)[C@H]4O[C@H](O[C@H]2C)[C@@H]3O)O[C@@H](C)[C@H](O[C@@H]2O[C@@H](C)[C@H](OC(=O)[C@@H](C)CC)[C@@H](OC(=O)/C=C/c3ccccc3)[C@H]2O)[C@H]1O[C@@H]1O[C@@H](C)[C@H](O)[C@@H](O)[C@H]1O` [PESCAPREIN XXIII], the outcome in data set [3] and in data set [5] was inactive. Moreover, the IC50 in data set [6] was greater than 10 µM.

As to `CCCCCCCCCCCC(=O)O[C@H]1[C@H](O[C@@H]2[C@H]3OC(=O)CCCCCCCCC[C@H](CCCCC)O[C@@H]4O[C@H](C)[C@H](O)[C@H](O)[C@H]4O[C@H](O[C@H]2C)[C@@H]3O)O[C@@H](C)[C@H](O[C@@H]2O[C@@H](C)[C@H](OC(=O)[C@@H](C)CC)[C@@H](OC(=O)/C=C/c3ccccc3)[C@H]2O)[C@H]1O[C@@H]1O[C@@H](C)[C@H](O)[C@@H](O)[C@H]1O` [PESCAPREIN XXI], the outcome in data set [3] and in data set [5] was inactive. Besides, in data set [6], the IC50 is greater than 10 µM.

With `CCCCCCCCCC(=O)O[C@H]1[C@H](O[C@@H]2[C@H]3OC(=O)CCCCCCCCC[C@H](CCCCC)O[C@@H]4O[C@H](C)[C@H](O)[C@H](O)[C@H]4O[C@H](O[C@H]2C)[C@@H]3O)O[C@@H](C)[C@H](O[C@@H]2O[C@@H](C)[C@H](OC(=O)C(C)C)[C@@H](OC(=O)/C=C/c3ccccc3)[C@H]2O)[C@H]1O[C@@H]1O[C@@H](C)[C@H](O)[C@@H](O)[C@H]1O` [PESCAPREIN XXVI], the outcome in data set [3] and in data set [5] was inactive. The IC50 in data set [6] was greater than 10 µM.

Regarding `CCCCCCCCCCCC(=O)O[C@H]1[C@H](O[C@@H]2[C@H]3OC(=O)CCCCCCCCC[C@H](CCCCC)O[C@@H]4O[C@H](C)[C@H](O)[C@H](O)[C@H]4O[C@H](O[C@H]2C)[C@@H]3O)O[C@@H](C)[C@H](O[C@@H]2O[C@@H](C)[C@H](OC(=O)C(C)C)[C@@H](OC(=O)/C=C/c3ccccc3)[C@H]2O)[C@H]1O[C@@H]1O[C@@H](C)[C@H](O)[C@@H](O)[C@H]1O` [PESCAPREIN XXV], the result in data set [3] and in data set [5] was inactive. Further, the IC50 in data set [6] is greater than 10 µM.

Take `CCCCCCCCCC(=O)O[C@H]1[C@H](O[C@@H]2[C@H]3OC(=O)CCCCCCCCC[C@H](CCCCC)O[C@@H]4O[C@H](C)[C@H](O)[C@H](O)[C@H]4O[C@H](O[C@H]2C)[C@@H]3O)O[C@@H](C)[C@H](O[C@@H]2O[C@@H](C)[C@H](OC(=O)[C@@H](C)CC)[C@@H](O)[C@H]2O)[C@H]1O[C@@H]1O[C@@H](C)[C@H](O)[C@@H](O)[C@H]1O` [STOLONIFERIN III]: the figures for the IC50 in data set [1], in data set [4] and in data set [6] were greater than 10 µM, greater than 10 µM and 7.7 µM, respectively. The result in data set [3] and in data set [5] was inactive.
